Assay results: PubChem BioAssay AID248 (DTP/NCI, 2004)
“And” between values parts separate entries of the source, which are not always exact repeats. Equal entries are not always repeated. Toxic doses and inconclusive results are not listed. Cut-off read from the data, not from the text of the source: active = T/C of 150% or more; inactive = T/C below 125%.

Test system: L1210 leukemia ip in BDF1 mice, survival T/C
Experiment: NCI In Vivo Anticancer Drug Screen. Data for tumor model L1210 Leukemia (intraperitoneal) in B6D2F1 (BDF1) mice
Settings: endpoint: mean survival time, higher = longer survival
Method in brief: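 Each compound was tested against a transplantable tumor grown in mice. The endpoint was survival, with treated animals benchmarked against vehicle controls as a simple ratio.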

[1] = dose: 50.0 mg/kg/injection, schedule: Q01DX001 (ip), vehicle: saline
[2] = dose: 100.0 mg/kg/injection, schedule: Q01DX001 (ip), vehicle: saline
[3] = dose: 200.0 mg/kg/injection, schedule: Q01DX001 (ip), vehicle: saline
[4] = dose: 100.0 mg/kg/injection, schedule: Q01DX001 (ip), vehicle: saline with Tween-80
[5] = dose: 200.0 mg/kg/injection, schedule: Q01DX001 (ip), vehicle: saline with Tween-80
[6] = dose: 400.0 mg/kg/injection, schedule: Q01DX001 (ip), vehicle: saline
[7] = dose: 100.0 mg/kg/injection, schedule: Q04DX002 (ip), vehicle: Klucel (hydroxypropylcellulose) (HPC)
[8] = dose: 200.0 mg/kg/injection, schedule: Q04DX002 (ip), vehicle: Klucel (hydroxypropylcellulose) (HPC)
[9] = dose: 400.0 mg/kg/injection, schedule: Q04DX002 (ip), vehicle: Klucel (hydroxypropylcellulose) (HPC)
[10] = dose: 100.0 mg/kg/injection, schedule: Q01DX009 (ip), vehicle: saline with Tween-80
[11] = dose: 200.0 mg/kg/injection, schedule: Q01DX009 (ip), vehicle: saline with Tween-80
[12] = dose: 100.0 mg/kg/injection, schedule: Q04DX003 (ip), vehicle: Klucel (hydroxypropylcellulose) (HPC)
[13] = dose: 200.0 mg/kg/injection, schedule: Q04DX003 (ip), vehicle: Klucel (hydroxypropylcellulose) (HPC)
[14] = dose: 400.0 mg/kg/injection, schedule: Q04DX003 (ip), vehicle: Klucel (hydroxypropylcellulose) (HPC)
[15] = dose: 400.0 mg/kg/injection, schedule: Q01DX009 (ip), vehicle: saline with Tween-80

Measured: T/C

CCN(CC)C(=O)c1cc(NC(=O)Nc2ccc(C3=NCCN3)cc2)cc(NC(=O)Nc2ccc(C3=NCCN3)cc2)c1
inactive: dose: 62.0 mg/kg/injection, schedule: Q01DX Z (ip), vehicle: carboxymethylcellulose (CMC) 91 % of control | dose: 125.0 mg/kg/injection, schedule: Q01DX Z (ip), vehicle: carboxymethylcellulose (CMC) 97 % of control | dose: 250.0 mg/kg/injection, schedule: Q01DX Z (ip), vehicle: carboxymethylcellulose (CMC) 97 % of control | dose: 500.0 mg/kg/injection, schedule: Q01DX Z (ip), vehicle: carboxymethylcellulose (CMC) 88 % of control

Nc1ccc(CCCNc2c(N)nc(N)nc2-c2ccccc2)cc1
inactive: [1] 100 % of control | [2] 103 % of control | [3] 94 % of control

O=C(O)CCc1cccc(O)c1
inactive: dose: 25.0 mg/kg/injection, schedule: Q04DX002 (ip), vehicle: saline 111 % of control | dose: 50.0 mg/kg/injection, schedule: Q04DX002 (ip), vehicle: saline 111 % of control | dose: 100.0 mg/kg/injection, schedule: Q04DX002 (ip), vehicle: saline 101 % of control

CC(C)CP(=S)(CC(C)C)CC(C)C
inactive: [4] 103 % of control | [5] 103 % of control | dose: 400.0 mg/kg/injection, schedule: Q01DX001 (ip), vehicle: saline with Tween-80 89 % of control

[N-]=[N+]=NC(c1ccccc1)C(I)c1ccccc1 (stereo unspecified)
inactive: [1] 103 % of control | [2] 103 % of control | [3] 108 % of control | [6] 97 % of control

CC1=CC(=C(C#N)C#N)CC(C)(C)C1
inactive: [7] 101 % of control | [8] 101 % of control | [9] 93 % of control

C#CCC(B1OCCO1)B1OCCO1
inactive: dose: 50.0 mg/kg/injection, schedule: Q01DX001 (ip), vehicle: Klucel (hydroxypropylcellulose) (HPC) 97 % of control | dose: 100.0 mg/kg/injection, schedule: Q01DX001 (ip), vehicle: Klucel (hydroxypropylcellulose) (HPC) 90 % of control | dose: 200.0 mg/kg/injection, schedule: Q01DX001 (ip), vehicle: Klucel (hydroxypropylcellulose) (HPC) 100 % of control

CC(C)C(Br)C(Br)c1ccccc1 (stereo unspecified)
inactive: dose: 50.0 mg/kg/injection, schedule: Q01DX009 (ip), vehicle: saline with Tween-80 96 % of control | [10] 102 % of control | [11] 96 % of control

Cc1cccc(NCC(=O)NN)c1
inactive: [7] 100 % of control | [8] 115 % of control

CCCCCCCCCCCCCCCCS(=O)(=O)N/N=C/c1ccccc1O
inactive: dose: 100.0 mg/kg/injection, schedule: Q01DX001 (ip), vehicle: carboxymethylcellulose (CMC) 95 % of control | dose: 200.0 mg/kg/injection, schedule: Q01DX001 (ip), vehicle: carboxymethylcellulose (CMC) 98 % of control

CC(=O)NCCNC(C)=O
inactive: [1] 102 % of control | [2] 108 % of control | [3] 117 % of control | [6] 96 % of control

Nc1nc(=S)c2ncn(C3OCC(O)C(O)C3O)c2[nH]1 (stereo unspecified)
inactive: dose: 5.0 mg/kg/injection, schedule: Q01DX001 (ip), vehicle: saline 101 % of control | dose: 10.0 mg/kg/injection, schedule: Q01DX001 (ip), vehicle: saline 95 % of control | dose: 12.5 mg/kg/injection, schedule: Q01DX009 (ip), vehicle: saline 98 % of control | dose: 20.0 mg/kg/injection, schedule: Q01DX001 (ip), vehicle: saline 96 % of control | dose: 25.0 mg/kg/injection, schedule: Q01DX009 (ip), vehicle: saline 97 % of control | dose: 40.0 mg/kg/injection, schedule: Q01DX001 (ip), vehicle: saline 101 % of control | dose: 50.0 mg/kg/injection, schedule: Q01DX009 (ip), vehicle: saline 98 % of control | dose: 80.0 mg/kg/injection, schedule: Q01DX001 (ip), vehicle: saline 96 % of control | [2] 98 % of control | dose: 100.0 mg/kg/injection, schedule: Q01DX009 (ip), vehicle: saline 101 % of control | [3] 102 % of control | [6] 102 % of control

Cn1ncc2c1NC(c1ccc(F)cc1)SCC2=O (stereo unspecified)
inactive: dose: 400.0 mg/kg/injection, schedule: Q01DX009 (ip), vehicle: gum acacia 108 % of control

C/C(=C\n1ccccc1=N)C(=O)c1ccc(F)cc1
inactive: [12] 96 % of control | [13] 98 % of control | [14] 100 % of control

NC(=O)C(Cc1ccc(O)cc1)NC(=O)c1ccccc1 (stereo unspecified)
inactive: dose: 100.0 mg/kg/injection, schedule: Q01DX009 (ip), vehicle: Klucel (hydroxypropylcellulose) (HPC) 95 % of control | [12] 105 % of control | dose: 200.0 mg/kg/injection, schedule: Q01DX009 (ip), vehicle: Klucel (hydroxypropylcellulose) (HPC) 90 % of control | [13] 102 % of control | dose: 400.0 mg/kg/injection, schedule: Q01DX009 (ip), vehicle: Klucel (hydroxypropylcellulose) (HPC) 93 % of control | [14] 94 % of control

CCCCCCCCCCCCCCCCCCNC(=O)Nc1ccccc1OC
inactive: [7] 101 % of control | [8] 107 % of control | [9] 96 % of control

CC(C)(N)C(=O)O
inactive: dose: 100.0 mg/kg/injection, schedule: Q04DX003 (ip), vehicle: saline sonified 101 % of control | dose: 200.0 mg/kg/injection, schedule: Q04DX003 (ip), vehicle: saline sonified 98 % of control | dose: 400.0 mg/kg/injection, schedule: Q04DX003 (ip), vehicle: saline sonified 98 % of control

O=S(=O)(CCCc1ccccc1)CCS(=O)(=O)CCCc1ccccc1
inactive: dose: 50.0 mg/kg/injection, schedule: Q01DX009 (ip), vehicle: acetone 98 % of control | dose: 100.0 mg/kg/injection, schedule: Q01DX009 (ip), vehicle: acetone 98 % of control | dose: 200.0 mg/kg/injection, schedule: Q01DX009 (ip), vehicle: acetone 98 % of control

O=C(COC(=O)c1ccccc1)NCCCCc1ccccc1
inactive: [4] 100 % of control | [10] 105 % of control and 91 % of control | dose: 100.0 mg/kg/injection, schedule: Q04DX002 (ip), vehicle: saline with Tween-80 96 % of control | dose: 100.0 mg/kg/injection, schedule: Q04DX003 (ip), vehicle: saline with Tween-80 94 % of control | [5] 89 % of control | [11] 95 % of control and 100 % of control | dose: 200.0 mg/kg/injection, schedule: Q04DX002 (ip), vehicle: saline with Tween-80 99 % of control and 91 % of control | dose: 200.0 mg/kg/injection, schedule: Q04DX003 (ip), vehicle: saline with Tween-80 92 % of control | [15] 94 % of control and 95 % of control | dose: 400.0 mg/kg/injection, schedule: Q04DX002 (ip), vehicle: saline with Tween-80 93 % of control and 86 % of control

C=CS(=O)(=O)Cc1ccc(Cl)cc1
inactive: dose: 10.0 mg/kg/injection, schedule: Q04DX002 (ip), vehicle: Klucel (hydroxypropylcellulose) (HPC) 117 % of control | dose: 20.0 mg/kg/injection, schedule: Q04DX002 (ip), vehicle: Klucel (hydroxypropylcellulose) (HPC) 106 % of control | dose: 40.0 mg/kg/injection, schedule: Q04DX002 (ip), vehicle: Klucel (hydroxypropylcellulose) (HPC) 98 % of control

O=C(NCC(O)CI)c1ccc([N+](=O)[O-])cc1 (stereo unspecified)
inactive: [10] 104 % of control | [11] 102 % of control | [15] 89 % of control
